These results are taken from ChEMBL document CHEMBL3046325, “Synthesis, computational studies, and preliminary pharmacological evaluation of new arylpiperazines as potential antipsychotics” (Med Chem Res, 2012).

The subject of series [1] is Mus musculus. As to the kind of experiment: Induction of catalepsy in ip dosed Mus musculus albino (mouse) measured at 30 min interval until 120 min and at the end of 240 min. As to conditions: in vivo. Format: organism-based.
Series [2] deals with Mus musculus. As to the kind of experiment: Antipsychotic activity in ip dosed Mus musculus Swiss albino (mouse) assessed as inhibiton of 5-HTP-induced head twitches pretreated 30 min before 50 mg/kg, sc 5-HTP administration measured at 10 min intervals for 30 min, starting 20 min after 5-HTP challenge. In kind it is functional.
Series [3] concerns Mus musculus. As to the kind of experiment: Antipsychotic activity in ip dosed Mus musculus Swiss albino (mouse) assessed as inhibition of […] -induced climbing behavior pretreated 10 min prior to 2.5 mg/kg, ip apomorphine administration measured at 5 min intervals for up to 20 min starting 10 min after apomorphine challenge. In kind it is functional. As to conditions: route intraperitoneal.

In general, ED50 refers to the midpoint of the dose-response relation. On to `COc1ccccc1N1CCN(CCCOc2ccccc2C(N)=O)CC1`, for which the values for the ED50 in the series on Mus musculus [1], in the series with Mus musculus [2] and in the series on Mus musculus [3] were greater than 60 mg/kg, 18.2 mg/kg and 50 mg/kg, respectively.

`CN1CCN(C2=Nc3cc(Cl)ccc3Nc3ccccc32)CC1` [CLOZAPINE]: the ED50 with Mus musculus [2] worked out at 2.8 mg/kg; in the series with Mus musculus [3], 8.7 mg/kg.

With `NC(=O)c1ccccc1OCCCN1CCN(c2ccccc2)CC1`, the median effective dose (ED50) with Mus musculus [1] was greater than 60 mg/kg; in the series on Mus musculus [2], greater than 20 mg/kg; with Mus musculus [3] it was greater than 40 mg/kg.

Regarding `NC(=O)c1ccccc1OCCN1CCN(c2ccccc2)CC1`, the ED50 in the series with Mus musculus [1] is 50 mg/kg; in the series with Mus musculus [2], 30 mg/kg; in the series with Mus musculus [3] it was 35.3 mg/kg.

For the compound `NC(=O)c1ccccc1OCCN1CCN(c2ccccc2Cl)CC1`, the ED50 is greater than 80 mg/kg in the series with Mus musculus [1], greater than 20 mg/kg in the series on Mus musculus [2] and greater than 40 mg/kg with Mus musculus [3].

Take `COc1ccccc1N1CCN(CCCCOc2ccccc2C(N)=O)CC1`: the ED50 with Mus musculus [1] was greater than 70 mg/kg; with Mus musculus [2] it was greater than 40 mg/kg; with Mus musculus [3], 50.8 mg/kg.

For the compound `Cc1ccc(N2CCN(CCOc3ccccc3C(N)=O)CC2)cc1`, the ED50 in the series on Mus musculus [1] was greater than 80 mg/kg; in the series on Mus musculus [2] it was 27.2 mg/kg; with Mus musculus [3], 40.5 mg/kg.

Regarding `COc1ccccc1N1CCN(CCOc2ccccc2C(N)=O)CC1`, the ED50 is 100 mg/kg in the series with Mus musculus [1], 10 mg/kg with Mus musculus [2] and 40 mg/kg with Mus musculus [3].

Turning to `Cc1cccc(N2CCN(CCOc3ccccc3C(N)=O)CC2)c1`, the 50% effective dose (ED50) is 70 mg/kg in the series on Mus musculus [1], greater than 20 mg/kg in the series with Mus musculus [2] and 40 mg/kg with Mus musculus [3].

For `NC(=O)c1ccccc1OCCCCN1CCN(c2ccccc2)CC1`, the ED50 was greater than 60 mg/kg in the series with Mus musculus [1], greater than 40 mg/kg in the series on Mus musculus [2] and greater than 40 mg/kg with Mus musculus [3].

Turning to `COc1cccc(N2CCN(CCOc3ccccc3C(N)=O)CC2)c1`, the values for the ED50 with Mus musculus [1], in the series on Mus musculus [2] and in the series with Mus musculus [3] were greater than 80 mg/kg, 25 mg/kg and greater than 40 mg/kg, respectively.
